Consider 19 compounds from patent publication US20120245104A1, “NOVEL RETRO-INVERSO LEPTIN PEPTIDE ANTAGONISTS” (priority 2011, published 2012).

Like-named read-outs stand apart in the source and are kept apart here. Where a SMILES comes first, the peptide text is derived from it. Where no end group is shown, it is not given here. [ ]: non-standard residue; d: D form.

The term IC50 denotes the concentration needed to halve the response being measured.

In this test the test system is MCF-7 cells. In kind it is cell-based. From the text: These peptides were compared to full length LPA-1 with respect to their abilities to inhibit leptin-induced cell growth. […] The same approach was employed with LPA-2 creating […] of the leptin molecule). […] Another LPA-2 scrambled peptide that may be used is […] NO: 3]. […] Retro-inverso peptides are peptides constructed with the reverse sequence and containing all D-amino acids. […] Retro-inverso LPA-1(24-6) sequence […] NO: 31] and retro-inverso LPA-2(89-72) […] NO: 32]. […] Studies were carried out using both MCF-7 and HT-29 cells. […] MCF-7 and HT-29 cells were cultured in DMEM-F12 medium containing 5% fetal bovine serum (FBS), 5 μg/ml insulin, 1% amphopthericin B, 100 μg/ml streptomycin and 100 U/ml penicillin until they were 80% confluent. The cells were washed twice with 100 mM phosphate saline buffer (PBS), pH 7.2 and cultured for additional 2 days in the same medium but without FBS (basal medium). Cells were washed as described before and cultured in basal medium containing the leptin peptides of the present invention or controls as described above.

The mark [1] stands for this setting: Table 1, L-amino acid peptides, cell line not named in Table 1 (same values in Table 2 are for MCF-7), read-out: IC50 values.
Setting [2] is: Table 2, MCF-7 cells, read-out: IC50 values.

For the compound `CC[C@@H](C)[C@@H](NC(=O)[C@@H](CO)NC(=O)[C@@H](CC(N)=O)NC(=O)[C@@H](CC(=O)O)NC(=O)[C@@H](CC(C)C)NC(=O)[C@@H](CCC(=O)O)NC(=O)[C@@H](CC(N)=O)NC(=O)[C@@H](CC(C)C)NC(=O)[C@@H](CCCNC(=N)N)NC(=O)[C@@H](CC(=O)O)NC(=O)[C@@H](CC(C)C)NC(=O)[C@@H](CC(C)C)NC(=O)[C@@H](Cc1c[nH]cn1)NC(=O)[C@H](N)C(C)C)C(=O)N[C@H](CCC(N)=O)C(=O)N[C@@H](C(=O)N[C@@H](C(=O)N[C@H](CC(N)=O)C(N)=O)C(C)C)[C@H](C)CC` [D-D79(1), VHLLDRLNELDNSIQIVN] (H-[dV][dH][dL][dL][dD][dR][dL][dN][dE][dL][dD][dN][dS][dI][dQ][dI][dV][dN]-NH2), the IC50 is 19.4 nM. Same read-out and setting: with `CC[C@@H](C)[C@@H](N)C(=O)N[C@H](CC(=O)O)C(=O)N[C@H](CC(N)=O)C(=O)N[C@@H](C(=O)N[C@H](CCCNC(=N)N)C(=O)N[C@@H](C(=O)N[C@@H](C(=O)N[C@@H](C(=O)N[C@@H](C(=O)N[C@H](CCCCN)C(=O)N[C@@H](C(=O)N[C@H](CC(C)C)C(=O)N[C@@H](C(=O)N[C@H](CCCCN)C(=O)N[C@@H](C(=O)N[C@H](CC(=O)O)C(=O)N[C@H](CC(=O)O)C(=O)N[C@H](CCC(N)=O)C(=O)N[C@@H](C(N)=O)C(C)C)[C@H](C)CC)[C@H](C)O)[C@H](C)CC)[C@H](C)O)[C@H](C)CC)C(C)C)[C@H](C)O)[C@H](C)CC` [D-I10] (H-[dI][dD][dN][dI][dR][dT][dV][dI][dT][dK][dI][dL][dT][dK][dI][dD][dD][dQ][dV]-NH2) the figure was 17.6 nM.

On to `CC[C@@H](C)[C@@H](NC(=O)[C@@H](CC(C)C)NC(=O)[C@@H](CCC(=O)O)NC(=O)[C@@H](CC(N)=O)NC(=O)[C@@H](CC(C)C)NC(=O)[C@@H](CCCNC(=N)N)NC(=O)[C@@H](CC(=O)O)NC(=O)[C@@H](CC(C)C)NC(=O)[C@@H](CC(C)C)NC(=O)[C@@H](Cc1c[nH]cn1)NC(=O)[C@H](N)C(C)C)C(=O)N[C@H](CC(N)=O)C(=O)N[C@H](CO)C(=O)N[C@@H](C(=O)N[C@H](CCC(N)=O)C(=O)N[C@@H](C(=O)N[C@@H](C(=O)N[C@H](CC(N)=O)C(N)=O)C(C)C)[C@H](C)CC)[C@H](C)CC` [D-I79] (H-[dV][dH][dL][dL][dD][dR][dL][dN][dE][dL][dI][dN][dS][dI][dQ][dI][dV][dN]-NH2), for which half-maximal inhibition (IC50) was put at 9.7 nM. Still for that read-out and setting: next, `CC[C@@H](C)[C@@H](N)C(=O)N[C@H](CC(=O)O)C(=O)N[C@H](CC(N)=O)C(=O)N[C@@H](C(=O)N[C@H](CCCNC(=N)N)C(=O)N[C@@H](C(=O)N[C@@H](C(=O)N[C@@H](C(=O)N[C@@H](C(=O)N[C@H](CCCCN)C(=O)N[C@@H](C(=O)N[C@H](CC(C)C)C(=O)N[C@@H](C(=O)N[C@H](CCCCN)C(=O)N[C@H](CC(C)C)C(=O)N[C@H](CC(=O)O)C(=O)N[C@H](CC(=O)O)C(=O)N[C@H](CCC(N)=O)C(=O)N[C@@H](C(N)=O)C(C)C)[C@H](C)O)[C@H](C)CC)[C@H](C)O)[C@H](C)CC)C(C)C)[C@H](C)O)[C@H](C)CC` [D-L10] (H-[dI][dD][dN][dI][dR][dT][dV][dI][dT][dK][dI][dL][dT][dK][dL][dD][dD][dQ][dV]-NH2): 11.8 nM.

Compound `CC[C@@H](C)[C@@H](NC(=O)[C@@H](CO)NC(=O)[C@@H](CC(N)=O)NC(=O)[C@@H](CC(C)C)NC(=O)[C@@H](CC(C)C)NC(=O)[C@@H](CCC(=O)O)NC(=O)[C@@H](CC(N)=O)NC(=O)[C@@H](CC(C)C)NC(=O)[C@@H](CCCNC(=N)N)NC(=O)[C@@H](CC(=O)O)NC(=O)[C@@H](CC(C)C)NC(=O)[C@@H](CC(C)C)NC(=O)[C@@H](Cc1c[nH]cn1)NC(=O)[C@H](N)C(C)C)C(=O)N[C@H](CCC(N)=O)C(=O)N[C@@H](C(=O)N[C@@H](C(=O)N[C@H](CC(N)=O)C(N)=O)C(C)C)[C@H](C)CC` [D-L79] (H-[dV][dH][dL][dL][dD][dR][dL][dN][dE][dL][dL][dN][dS][dI][dQ][dI][dV][dN]-NH2) came in with a 50% inhibitory concentration (IC50) of 18.7 nM. Still for that read-out and setting: next, `CC[C@@H](C)[C@@H](N)C(=O)N[C@H](CC(=O)O)C(=O)N[C@H](CC(N)=O)C(=O)N[C@@H](C(=O)N[C@H](CCCNC(=N)N)C(=O)N[C@@H](C(=O)N[C@@H](C(=O)N[C@@H](C(=O)N[C@@H](C(=O)N[C@H](CCCCN)C(=O)N[C@@H](C(=O)N[C@H](CC(C)C)C(=O)N[C@@H](C(=O)N[C@H](CCCCN)C(=O)N[C@@H](C(=O)N[C@H](CC(=O)O)C(=O)N[C@H](CC(=O)O)C(=O)N[C@H](CCC(N)=O)C(=O)N[C@@H](C(N)=O)C(C)C)[C@H](C)O)[C@H](C)O)[C@H](C)CC)[C@H](C)O)[C@H](C)CC)C(C)C)[C@H](C)O)[C@H](C)CC` [D-T10(1), IDNIRTVITKILTKTDDQV] (H-[dI][dD][dN][dI][dR][dT][dV][dI][dT][dK][dI][dL][dT][dK][dT][dD][dD][dQ][dV]-NH2): 16.9 nM; `CC[C@@H](C)[C@@H](N)C(=O)N[C@H](CC(=O)O)C(=O)N[C@H](CC(N)=O)C(=O)N[C@@H](C(=O)N[C@H](CCCNC(=N)N)C(=O)N[C@@H](C(=O)N[C@@H](C(=O)N[C@@H](C(=O)N[C@@H](C(=O)N[C@H](CCCCN)C(=O)N[C@@H](C(=O)N[C@H](CC(C)C)C(=O)N[C@@H](C(=O)N[C@H](CCCCN)C(=O)N[C@@H](C(=O)N[C@H](CC(=O)O)C(=O)N[C@H](CC(=O)O)C(=O)N[C@H](CCC(N)=O)C(=O)N[C@@H](C(N)=O)C(C)C)C(C)C)[C@H](C)O)[C@H](C)CC)[C@H](C)O)[C@H](C)CC)C(C)C)[C@H](C)O)[C@H](C)CC` [D-V10] (H-[dI][dD][dN][dI][dR][dT][dV][dI][dT][dK][dI][dL][dT][dK][dV][dD][dD][dQ][dV]-NH2): 17.4 nM; `CC[C@@H](C)[C@@H](NC(=O)[C@@H](CO)NC(=O)[C@@H](CC(N)=O)NC(=O)[C@H](NC(=O)[C@@H](CC(C)C)NC(=O)[C@@H](CCC(=O)O)NC(=O)[C@@H](CC(N)=O)NC(=O)[C@@H](CC(C)C)NC(=O)[C@@H](CCCNC(=N)N)NC(=O)[C@@H](CC(=O)O)NC(=O)[C@@H](CC(C)C)NC(=O)[C@@H](CC(C)C)NC(=O)[C@@H](Cc1c[nH]cn1)NC(=O)[C@H](N)C(C)C)C(C)C)C(=O)N[C@H](CCC(N)=O)C(=O)N[C@@H](C(=O)N[C@@H](C(=O)N[C@H](CC(N)=O)C(N)=O)C(C)C)[C@H](C)CC` [D-V79] (H-[dV][dH][dL][dL][dD][dR][dL][dN][dE][dL][dV][dN][dS][dI][dQ][dI][dV][dN]-NH2): 13.6 nM. For the compound “IQKVQDDTKTLIKTIVTRINDISHTQSVSSKQ-NH2 [Full-length LPA-1 (3-34), reference compound]”, the IC50 is 39.1 nM under setting [1] and 39.1 nM under setting [2]. For NVIQISNALENLRDLLHV-NH2, the IC50 was found to be 54 nM.

Consider “NVIQISNDLENLRDLLHV-NH2 [D79 (original amino acid)]”, for which the IC50 turned out to be 32 nM.

In turn, NVIQISNILENLRDLLHV-NH2 returned an IC50 of 16 nM.

NVIQISNLLENLRDLLHV-NH2 had an IC50 of 16 nM. Take NVIQISNVLENLRDLLHV-NH2: the IC50 came to 15.6 nM. As to “SRNVIQISNDLENLRDLLHVLAFSKS-NH2 [Full-length LPA-2 (70-95), reference compound]”, the IC50 was 33 nM under setting [1] and 33 nM under setting [2]. As for VQDDAKTLIKTIVTRINDI-NH2, the IC50 stood at 88 nM. The same measure, in the same setting: with VQDDIKTLIKTIVTRINDI-NH2 the figure was 21 nM; with “VQDDTKTLIKTIVTRINDI-NH2 [T10 (original amino acid)]”, 25.7 nM. Same read-out and setting: next, VQDDVKTLIKTIVTRINDI-NH2: 20.7 nM.
